The test system of assay [1] is all tested bacterial strains. Description: MIC by broth microdilution, all tested bacterial strains. It is filed as cell-based. The procedure:
(§1) The bacterial strains Bacillus subtilis ATCC 6637, Bacteroides fragilis ATCC 25285, Clostridium bifermentans ATCC 638, Escherichia coli ATCC 35218, Enterococcus faecalis ATCC 29212, Pseudomonas aeruginosa ATCC 27853, Staphylococcus aureus ATCC 6538, Staphylococcus aureus ATCC 25923, Staphylococcus aureus ATCC 29213, Staphylococcus aureus ATCC 43300, and Staphylococcus epidermidis ATCC 12228 were cultured in Mueller–Hinton medium (Oxoid, Basingstoke, UK) at 37 °C for 24 h.
(§2) The minimal inhibitory concentration (MIC) was determined by the broth microdilution method according to the standards of the Clinical and Laboratory Standards Institute (CLSI) manuals in 96-well plates. All stock solutions of the investigated complexes were prepared in DMSO with concentrations of 2 mg mL^−1.
(§3) The MIC was estimated as the lowest concentration of the complex inhibiting bacterial growth. As negative controls, samples without inoculum at each complex concentration were used, whereas the positive control contained the inoculum but not the investigated complexes. Each complex was tested at concentrations between 2.5 and 160 µg mL^−1. The first well contained the highest concentration, and further concentrations were achieved by serial dilution. The assay was performed in duplicate with three repetitions for each bacterial strain.

The next assay concerns the target T1, ovine COX-1 (Ovis aries, UniProt P05979).
T1 construct: purchased Cayman Chemicals
T1 sequence (P05979 25-600): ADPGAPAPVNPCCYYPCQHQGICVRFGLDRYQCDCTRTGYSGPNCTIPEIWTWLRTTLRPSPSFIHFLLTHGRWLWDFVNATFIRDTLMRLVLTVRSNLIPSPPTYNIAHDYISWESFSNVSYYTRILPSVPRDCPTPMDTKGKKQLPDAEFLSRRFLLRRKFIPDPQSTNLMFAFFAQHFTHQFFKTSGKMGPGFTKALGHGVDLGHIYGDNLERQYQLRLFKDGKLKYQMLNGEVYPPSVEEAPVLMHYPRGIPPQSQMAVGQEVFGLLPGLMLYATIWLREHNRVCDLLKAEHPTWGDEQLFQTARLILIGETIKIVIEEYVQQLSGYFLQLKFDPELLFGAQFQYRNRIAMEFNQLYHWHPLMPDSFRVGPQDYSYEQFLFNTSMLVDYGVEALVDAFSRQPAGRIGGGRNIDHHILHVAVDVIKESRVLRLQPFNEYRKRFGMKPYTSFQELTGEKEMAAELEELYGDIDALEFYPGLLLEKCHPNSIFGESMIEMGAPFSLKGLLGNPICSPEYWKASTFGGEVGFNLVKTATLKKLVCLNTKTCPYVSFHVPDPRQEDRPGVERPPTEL
Description: COX (ovine/human) Inhibitor Screening Assay, COX-1. It is filed as biochemical. The protocol:
The ability of the obtained complexes to inhibit cyclooxygenase activity was measured using a COX (ovine/human) Inhibitor Screening Assay Kit (Cayman Chemicals, MI, USA) with ovine COX-1 and human recombinant COX-2. The amount of prostaglandin, dependent on the COX activity, after exposure to the tested complexes was calculated from the standard curve. […] The selectivity indices (SIs) were calculated according to the formula COX-1 IC50/COX-2 IC50.

Another assay relates to CCD-18Co cells. The experiment in a line: XTT cytotoxicity/proliferation assay on CCD-18Co fibroblasts. It is filed as cell-based, human. The settings on record: 24 h incubation, XTT test. The procedure:
The cell line CCD-18Co (fibroblasts from the colon of a healthy human) was obtained from the American Type Cells Collections (Cat. No. ATCC-CRL-1459). The cells were cultured in Minimum Essential Medium Eagle (MEM) with Earle’s salts, L-glutamine, sodium bicarbonate, and phenol red, supplemented with 10% fetal bovine serum (FBS), 1% non-essential amino acids (NEAAs), and 1% penicillin/streptomycin solution (P/S), all purchased from Sigma-Aldrich (St. Louis, MO, USA). The incubation parameters were 37 ℃, 5% CO2, and 95% relative humidity. The cytotoxicity of the tested complexes (Ag-IBU, Ag-IBU-CAF, Cu-IBU, and Cu-IBU-CAF) was derived using two distinct parameters: (1) tetrazolium salt (XTT) reduction by mitochondrial succinate dehydrogenases using an XTT (Tetrazolium hydroxide) Kit; and (2) neutral red (NR) dye uptake and incorporation within lysosomes using an NR (Neutral Red) Kit. Both kits were produced by Xenometrix AG, Allschwil, Switzerland. The assays were carried out without any substantial changes to the test procedures provided by the manufacturer. The stock solutions of the tested compounds at 20 mg mL^−1 were prepared in DMSO. […] The cells were incubated for the next 3 h, gently mixed, and the absorbance was read at 480 nm with a reference wavelength of 690 nm using the multi-mode plate reader FLUOstar Omega (BMG Labtech, Ortenberg, Germany). […]

Assay [2] relates to Staphylococcus aureus ATCC 29213. The experiment in a line: MIC by broth microdilution. It is filed as cell-based. The protocol: as §1, §2, §3
Assay [3] concerns Staphylococcus aureus ATCC 43300. The experiment in a line: MIC by broth microdilution. It is filed as cell-based. The protocol:
as §1, §2, §3

Assay [4] relates to Bacteroides fragilis ATCC 25285. Description: MIC by broth microdilution. It is filed as cell-based. The procedure:
as §1, §2, §3

Assay [5] relates to Escherichia coli ATCC 25218. The experiment in a line: MIC by broth microdilution. It is filed as cell-based. The procedure: as §1, §2, §3
Assay [6] deals with Bacillus subtilis ATCC 6637. The experiment in a line: MIC by broth microdilution. It is filed as cell-based. The procedure: as §1, §2, §3
Assay [7] has as its system Pseudomonas aeruginosa ATCC 27853. Description: MIC by broth microdilution. It is filed as cell-based. The protocol: as §1, §2, §3
Assay [8] concerns Staphylococcus aureus ATCC 25923. Description: MIC by broth microdilution. It is filed as cell-based. The protocol: as §1, §2, §3
In assay [9] the test system is Staphylococcus epidermidis ATCC 12228. Description: MIC by broth microdilution. It is filed as cell-based. The procedure: as §1, §2, §3
Assay [10] has as its system Enterococcus faecalis ATCC 29212. The experiment in a line: MIC by broth microdilution. It is filed as cell-based. The procedure: as §1, §2, §3
Assay [11] has as its system Staphylococcus aureus ATCC 6538. The experiment in a line: MIC by broth microdilution. It is filed as cell-based. The procedure:
as §1, §2, §3

In assay [12] the test system is Staphylococcus aureus ATCC 29213. Description: Disc diffusion test (Kirby–Bauer). The settings on record: concentration according to MIC, 6 mm filter discs. It is filed as cell-based. The protocol:
as §1
(§4) The antimicrobial sensibility assay was performed according to the Kirby–Bauer method using 6 mm filter discs. Mueller–Hinton agar (Oxoid) was poured onto Petri dishes (90 mm), and saturated filter discs at the concentration determined as the MIC were placed onto the agar surface after distributing bacteria on the agar. The Petri dishes were incubated at 37 °C for 24 h.

Assay [13] relates to Staphylococcus aureus ATCC 43300. The experiment in a line: Disc diffusion test (Kirby–Bauer). It is filed as cell-based. The following applies: concentration according to MIC, 6 mm filter discs. The procedure: as §1, §4
Assay [14] deals with Bacteroides fragilis ATCC 25285. Description: Disc diffusion test (Kirby–Bauer). The settings on record: concentration according to MIC, 6 mm filter discs. It is filed as cell-based. The procedure:
as §1, §4

Assay [15] deals with Escherichia coli ATCC 25218. Description: Disc diffusion test (Kirby–Bauer). The settings on record: concentration according to MIC, 6 mm filter discs. It is filed as cell-based. The protocol:
as §1, §4

Assay [16] has as its system Bacillus subtilis ATCC 6637. The experiment in a line: Disc diffusion test (Kirby–Bauer). It is filed as cell-based. The following applies: concentration according to MIC, 6 mm filter discs. The procedure:
as §1, §4

For assay [17], the system named is Pseudomonas aeruginosa ATCC 27853. Description: Disc diffusion test (Kirby–Bauer). It is filed as cell-based. The following applies: concentration according to MIC, 6 mm filter discs. The protocol: as §1, §4
Assay [18] concerns Staphylococcus aureus ATCC 25923. The experiment in a line: Disc diffusion test (Kirby–Bauer). The settings on record: concentration according to MIC, 6 mm filter discs. It is filed as cell-based. The procedure:
as §1, §4

For assay [19], the system named is Staphylococcus epidermidis ATCC 12228. The experiment in a line: Disc diffusion test (Kirby–Bauer). The settings on record: concentration according to MIC, 6 mm filter discs. It is filed as cell-based. The protocol: as §1, §4
The subject of assay [20] is Enterococcus faecalis ATCC 29212. Description: Disc diffusion test (Kirby–Bauer). It is filed as cell-based. The following applies: concentration according to MIC, 6 mm filter discs. The protocol:
as §1, §4

The test system of assay [21] is Staphylococcus aureus ATCC 6538. The experiment in a line: Disc diffusion test (Kirby–Bauer). It is filed as cell-based. The settings on record: concentration according to MIC, 6 mm filter discs. The protocol:
as §1, §4

Like-named read-outs stand apart in the source and are kept apart here.

We go through three compounds from PMC10821035, “Silver and Copper Complexes with Ibuprofen and Caffeine—Preparation and Evaluation of Their Selected Biological Effects” (Molecules, 2024).

For `CC(C)Cc1ccc(C(C)C(=O)O)cc1` (racemic) [IBU, (RS)-2-(4-(2-methylpropyl)phenyl)propanoic acid, reference compound], the MIC in [1] (2.5–160 µg mL^−1, read-out: MIC) was above 200 µg/mL.

Consider `CC(C)Cc1ccc(C(C)C(=O)[O][Ag])cc1.Cn1c(=O)c2c(ncn2C)n(C)c1=O` (centres unmarked) [Ag-IBU-CAF], for which the “IC50 COX-1” value on ovine COX-1 worked out at 62.5 µg/mL. In addition, the MIC in [1] (2.5–160 µg mL^−1) was at most 20 µg/mL; in [2] it was 5 µg/mL; in assay [3], 10 µg/mL; in assay [4] it was 20 µg/mL; in assay [5], 5 µg/mL; in assay [6], 10 µg/mL. In addition, the MIC in [7] came out at 10 µg/mL; in assay [8] it was 5 µg/mL; in assay [9], 10 µg/mL; in [10], 5 µg/mL; in [11], 5 µg/mL. In the assay with CCD-18Co cells, this compound displayed a 24h-IC50 of 33.35 µg/mL. The “Inhibition Halo” value in assay [12] is given as 12 mm; in [13], 15 mm; in assay [14], 10 mm; in assay [15], 17 mm; in [16], 13 mm; in assay [17] it was 15 mm. Besides, the “Inhibition Halo” value in assay [18] turned out to be 16 mm; in assay [19] it was 11 mm; in [20], 16 mm; in [21], 15 mm.

On to `CC(C)Cc1ccc(C(C)C(=O)[O][Ag])cc1` (centres unmarked) [Ag-IBU], for which the “IC50 COX-1” value against ovine COX-1 was 64.6 µg/mL. Moreover, the MIC in [1] (2.5–160 µg mL^−1) is at most 20 µg/mL; in assay [2], 5 µg/mL; in [3] it was 20 µg/mL; in [4], 20 µg/mL; in [5] it was 10 µg/mL; in [6] it was 10 µg/mL. The MIC was found to be 10 µg/mL in assay [7]; 10 µg/mL in assay [8]; 20 µg/mL in assay [9]; 10 µg/mL in assay [10]; 10 µg/mL in assay [11]. For the same compound, the 24h-IC50 with CCD-18Co cells stood at 25.10 µg/mL. The “Inhibition Halo” value was 7 mm in assay [12]; 13 mm in assay [13]; 7 mm in assay [14]; 9 mm in assay [15]; 11 mm in assay [16]; 10 mm in assay [17]. In addition, the “Inhibition Halo” value in assay [18] was found to be 14 mm; in [19], 10 mm; in [20], 14 mm; in assay [21], 14 mm.
